Data: PubChem BioAssay AID2060488 (Molecular Pharmacology Branch, DTP, NCI, 2025)

Test system: 966289-007-R4-J1-PDC complex spheroid viability
Assay: Anticancer human tumor 966289-007-R4-J1-PDC patient-derived pancreatic adenocarcinoma cell line growth inhibition [GQUAD]
Settings: for IC50: curve of first compound; for viability, T/C: stronger effect = lower value; active means viability on the fitted dose curve at most 10% of control; inactive means the rest
Method in brief: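 Multi-cell-type spheroids of tumor cells with HUVEC and mesenchymal stem cells, treated with drug combinations. Concentrations descend in half-log steps from near clinical Cmax, or from 10 microM where Cmax is unknown; viability read-out.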

[1] = second compound 0.0316 µM, first compound 0.0316 µM
[2] = second compound 0.0316 µM, first compound 0.1 µM
[3] = second compound 0.0316 µM, first compound 0.316 µM
[4] = second compound 0.0316 µM, first compound 1 µM
[5] = second compound 0.0316 µM, first compound 3.16 µM
[6] = second compound 0.0316 µM, first compound 10 µM
[7] = second compound 0.1 µM, first compound 0.0316 µM
[8] = second compound 0.1 µM, first compound 0.1 µM
[9] = second compound 0.1 µM, first compound 0.316 µM
[10] = second compound 0.1 µM, first compound 1 µM
[11] = second compound 0.1 µM, first compound 3.16 µM
[12] = second compound 0.1 µM, first compound 10 µM
[13] = second compound 0.316 µM, first compound 0.0316 µM
[14] = second compound 0.316 µM, first compound 0.1 µM
[15] = second compound 0.316 µM, first compound 0.316 µM
[16] = second compound 0.316 µM, first compound 1 µM
[17] = second compound 0.316 µM, first compound 3.16 µM
[18] = second compound 0.316 µM, first compound 10 µM
[19] = second compound 1 µM, first compound 0.0316 µM
[20] = second compound 1 µM, first compound 0.1 µM
[21] = second compound 1 µM, first compound 0.316 µM
[22] = second compound 1 µM, first compound 1 µM
[23] = second compound 1 µM, first compound 3.16 µM
[24] = second compound 1 µM, first compound 10 µM
[25] = second compound 3.16 µM, first compound 0.0316 µM
[26] = second compound 3.16 µM, first compound 0.1 µM
[27] = second compound 3.16 µM, first compound 0.316 µM
[28] = second compound 3.16 µM, first compound 1 µM
[29] = second compound 3.16 µM, first compound 3.16 µM
[30] = second compound 3.16 µM, first compound 10 µM
[31] = second compound 10 µM, first compound 0.0316 µM
[32] = second compound 10 µM, first compound 0.1 µM
[33] = second compound 10 µM, first compound 0.316 µM
[34] = second compound 10 µM, first compound 1 µM
[35] = second compound 10 µM, first compound 3.16 µM
[36] = second compound 10 µM, first compound 10 µM
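Further: spheroids exposed to the agents for seven days before readout.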
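Wherever viability, T/C is given: percent viability relative to DMSO vehicle control wells taken as 100%.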

CC1COCCN1c1cc(-c2ccnn2C)c2ccnc(-c3ccn[nH]3)c2n1 (stereo not drawn) + Cc1cnc(CNC(=O)c2c(=O)c3ccc(N4CCCN(C)CC4)nc3n3c2sc2ccccc23)cn1
inactive: viability, T/C [1] 24.3%
active: viability, T/C [2] 6.05% | viability, T/C [3] 4.12% | viability, T/C [4] 4.23% | viability, T/C [5] 3.36% | viability, T/C [6] 2.9% | viability, T/C [7] 6.63% | viability, T/C [8] 3.84% | viability, T/C [9] 4.03% | viability, T/C [10] 4.94% | viability, T/C [11] 3.73% | viability, T/C [12] 3.29% | viability, T/C [13] 7.42% | viability, T/C [14] 5.9% | viability, T/C [15] 5.46% | viability, T/C [16] 5.36% | viability, T/C [17] 3.91% | viability, T/C [18] 3.35% | viability, T/C [19] 5.44% | viability, T/C [20] 5.41% | viability, T/C [21] 6.4% | viability, T/C [22] 6.38% | viability, T/C [23] 5.26% | viability, T/C [24] 3.91% | viability, T/C [25] 3.88% | viability, T/C [26] 3.62% | viability, T/C [27] 4.85% | viability, T/C [28] 5.21% | viability, T/C [29] 6.21% | viability, T/C [30] 4.16% | viability, T/C [31] 0.03% | viability, T/C [32] 0.07% | viability, T/C [33] 0.1% | viability, T/C [34] 0.08% | viability, T/C [35] 0.11% | viability, T/C [36] 0.15%
< 31.6 nM: IC50 (second compound 0.0316 µM) | IC50 (second compound 0.1 µM) | IC50 (second compound 0.316 µM) | IC50 (second compound 1 µM) | IC50 (second compound 3.16 µM) | IC50 (second compound 10 µM)

CC1COCCN1c1cc(C2(O)CC3CCC(C2)O3)c2cnn(-c3ccn[nH]3)c2n1 (stereo not drawn) + Cc1cnc(CNC(=O)c2c(=O)c3ccc(N4CCCN(C)CC4)nc3n3c2sc2ccccc23)cn1
inactive: viability, T/C [1] 17.9%
< 31.6 nM: IC50 (second compound 0.0316 µM) | IC50 (second compound 0.1 µM) | IC50 (second compound 0.316 µM) | IC50 (second compound 1 µM) | IC50 (second compound 3.16 µM) | IC50 (second compound 10 µM)
active: viability, T/C [2] 6.32% | viability, T/C [3] 6.87% | viability, T/C [4] 4.01% | viability, T/C [5] 4.28% | viability, T/C [6] 3.82% | viability, T/C [7] 8.59% | viability, T/C [8] 4.79% | viability, T/C [9] 5.61% | viability, T/C [10] 4.59% | viability, T/C [11] 3.77% | viability, T/C [12] 3.82% | viability, T/C [13] 6.96% | viability, T/C [14] 6.64% | viability, T/C [15] 7.05% | viability, T/C [16] 5.35% | viability, T/C [17] 4.24% | viability, T/C [18] 3.79% | viability, T/C [19] 5.69% | viability, T/C [20] 6.03% | viability, T/C [21] 7.24% | viability, T/C [22] 5.15% | viability, T/C [23] 5.42% | viability, T/C [24] 4.18% | viability, T/C [25] 4.9% | viability, T/C [26] 5.03% | viability, T/C [27] 5.23% | viability, T/C [28] 5.64% | viability, T/C [29] 5.02% | viability, T/C [30] 3.38% | viability, T/C [31] 0.04% | viability, T/C [32] 0.08% | viability, T/C [33] 0.11% | viability, T/C [34] 0.07% | viability, T/C [35] 0.15% | viability, T/C [36] 0.14%

CC1COCCN1c1cc(C2(S(C)(=N)=O)CC2)nc(-c2ccnc3[nH]ccc23)n1 (stereo not drawn) + Cc1cnc(CNC(=O)c2c(=O)c3ccc(N4CCCN(C)CC4)nc3n3c2sc2ccccc23)cn1
2700 nM: IC50 (second compound 0.0316 µM)
active: viability, T/C [6] 3.76% | viability, T/C [11] 15.3% | viability, T/C [12] 4.26% | viability, T/C [16] 8.4% | viability, T/C [17] 11.7% | viability, T/C [18] 3.59% | viability, T/C [19] 7.28% | viability, T/C [20] 8.94% | viability, T/C [21] 8.19% | viability, T/C [22] 6.87% | viability, T/C [23] 8.21% | viability, T/C [24] 2.84% | viability, T/C [25] 5.74% | viability, T/C [26] 6.34% | viability, T/C [27] 6.62% | viability, T/C [28] 5.33% | viability, T/C [29] 6.14% | viability, T/C [30] 2.86% | viability, T/C [31] 0.15% | viability, T/C [32] 0.14% | viability, T/C [33] 0.19% | viability, T/C [34] 0.18% | viability, T/C [35] 0.19% | viability, T/C [36] 0.16%
inactive: viability, T/C [1] 119% | viability, T/C [2] 108% | viability, T/C [3] 107% | viability, T/C [4] 44.5% | viability, T/C [5] 68.7% | viability, T/C [7] 42.7% | viability, T/C [8] 34.2% | viability, T/C [9] 20.3% | viability, T/C [10] 11.8% | viability, T/C [13] 16.7% | viability, T/C [14] 13.1% | viability, T/C [15] 12.2%
< 31.6 nM: IC50 (second compound 0.1 µM) | IC50 (second compound 0.316 µM) | IC50 (second compound 1 µM) | IC50 (second compound 3.16 µM) | IC50 (second compound 10 µM)

COc1ccc([C@@H](O)c2cc(-c3ncnc4cc(N5CCOCC5)ccc34)c(F)cc2Cl)nn1 + Cc1cnc(CNC(=O)c2c(=O)c3ccc(N4CCCN(C)CC4)nc3n3c2sc2ccccc23)cn1
826 nM: IC50 (second compound 0.0316 µM)
< 31.6 nM: IC50 (second compound 0.1 µM) | IC50 (second compound 0.316 µM) | IC50 (second compound 1 µM) | IC50 (second compound 3.16 µM) | IC50 (second compound 10 µM)
inactive: viability, T/C [1] 119% | viability, T/C [2] 109% | viability, T/C [3] 107% | viability, T/C [4] 38.6% | viability, T/C [5] 36% | viability, T/C [6] 26% | viability, T/C [7] 47.7% | viability, T/C [8] 37.2% | viability, T/C [9] 21.7% | viability, T/C [10] 11.2% | viability, T/C [11] 12.2% | viability, T/C [12] 13.2% | viability, T/C [13] 14.1% | viability, T/C [14] 15% | viability, T/C [15] 10.7% | viability, T/C [16] 9.67% | viability, T/C [17] 12.2% | viability, T/C [18] 10.4%
active: viability, T/C [19] 7.16% | viability, T/C [20] 7.76% | viability, T/C [21] 6.22% | viability, T/C [22] 5.28% | viability, T/C [23] 7.22% | viability, T/C [24] 6.81% | viability, T/C [25] 5.73% | viability, T/C [26] 5.42% | viability, T/C [27] 4.82% | viability, T/C [28] 4.3% | viability, T/C [29] 6.69% | viability, T/C [30] 6.78% | viability, T/C [31] 0.11% | viability, T/C [32] 0.13% | viability, T/C [33] 0.3% | viability, T/C [34] 0.15% | viability, T/C [35] 0.42% | viability, T/C [36] 0.15%
